Reference: patent US9120812B2, “Pyrimidooxazocine derivatives as mTOR-inhibitors” (SANOFI, priority 2012, dated 2015)
pIC50: −log10 of the molar value.

How the values were obtained:
U87MG tumour cells = experiment: Test of in vitro proliferation of U87MG tumour cells; assay type: cell-based; conditions: Homo sapiens, U-87 MG, 72 h, U87MG cells, 72 hours; read-out: U87 Cell Proliferation IC50
Procedure: Model 4: Test of in vitro Proliferation of U87MG Tumour Cells.
The cell growth is determined with the reagent CellTiter 96 AQueous One Solution Cell Proliferation Assay from Promega (Cat. No. G3581).

Akt-pS473 in U87MG cells = conditions: Homo sapiens, U-87 MG, read-out: U87 Akt-pS473 % Inhibition or IC50, nM (IC50), U87MG cells
PI3Kα (p110α/p85α) = PI3Kα (p110α/p85α) (Homo sapiens (Human), UniProt P42336); experiment: PI3Kα enzymatic test by measuring the consumption of ATP; assay type: biochemical
PI3Kα (p110α/p85α), sequence (P42336 whole entry): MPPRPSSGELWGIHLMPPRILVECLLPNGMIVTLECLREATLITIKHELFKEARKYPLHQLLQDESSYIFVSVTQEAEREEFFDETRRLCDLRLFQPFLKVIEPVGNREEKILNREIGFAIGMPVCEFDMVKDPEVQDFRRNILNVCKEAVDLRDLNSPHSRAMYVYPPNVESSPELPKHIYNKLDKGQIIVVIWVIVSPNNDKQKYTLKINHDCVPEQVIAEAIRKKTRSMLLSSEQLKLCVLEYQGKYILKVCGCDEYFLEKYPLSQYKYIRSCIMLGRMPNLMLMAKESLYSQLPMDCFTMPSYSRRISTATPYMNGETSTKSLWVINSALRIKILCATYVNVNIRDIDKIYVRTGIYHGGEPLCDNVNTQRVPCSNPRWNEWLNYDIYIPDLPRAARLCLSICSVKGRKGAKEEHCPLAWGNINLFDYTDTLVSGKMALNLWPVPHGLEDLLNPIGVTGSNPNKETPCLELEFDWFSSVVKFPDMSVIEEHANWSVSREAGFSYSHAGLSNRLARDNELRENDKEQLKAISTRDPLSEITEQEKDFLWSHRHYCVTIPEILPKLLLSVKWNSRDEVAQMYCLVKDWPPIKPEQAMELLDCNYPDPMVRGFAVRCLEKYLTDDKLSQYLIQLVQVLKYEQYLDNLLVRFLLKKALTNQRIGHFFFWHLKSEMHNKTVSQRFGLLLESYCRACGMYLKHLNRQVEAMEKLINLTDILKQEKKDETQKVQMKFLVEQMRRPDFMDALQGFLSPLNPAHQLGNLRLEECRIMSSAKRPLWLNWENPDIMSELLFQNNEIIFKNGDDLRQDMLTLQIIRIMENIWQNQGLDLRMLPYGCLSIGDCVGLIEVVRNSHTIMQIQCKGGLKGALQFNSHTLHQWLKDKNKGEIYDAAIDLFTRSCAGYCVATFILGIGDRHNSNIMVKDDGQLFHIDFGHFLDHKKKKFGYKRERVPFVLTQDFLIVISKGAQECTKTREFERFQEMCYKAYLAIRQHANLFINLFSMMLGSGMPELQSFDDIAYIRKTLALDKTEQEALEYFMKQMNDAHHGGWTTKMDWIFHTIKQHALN
PI3Kα (p110α/p85α), sequence (P27986 whole entry partner): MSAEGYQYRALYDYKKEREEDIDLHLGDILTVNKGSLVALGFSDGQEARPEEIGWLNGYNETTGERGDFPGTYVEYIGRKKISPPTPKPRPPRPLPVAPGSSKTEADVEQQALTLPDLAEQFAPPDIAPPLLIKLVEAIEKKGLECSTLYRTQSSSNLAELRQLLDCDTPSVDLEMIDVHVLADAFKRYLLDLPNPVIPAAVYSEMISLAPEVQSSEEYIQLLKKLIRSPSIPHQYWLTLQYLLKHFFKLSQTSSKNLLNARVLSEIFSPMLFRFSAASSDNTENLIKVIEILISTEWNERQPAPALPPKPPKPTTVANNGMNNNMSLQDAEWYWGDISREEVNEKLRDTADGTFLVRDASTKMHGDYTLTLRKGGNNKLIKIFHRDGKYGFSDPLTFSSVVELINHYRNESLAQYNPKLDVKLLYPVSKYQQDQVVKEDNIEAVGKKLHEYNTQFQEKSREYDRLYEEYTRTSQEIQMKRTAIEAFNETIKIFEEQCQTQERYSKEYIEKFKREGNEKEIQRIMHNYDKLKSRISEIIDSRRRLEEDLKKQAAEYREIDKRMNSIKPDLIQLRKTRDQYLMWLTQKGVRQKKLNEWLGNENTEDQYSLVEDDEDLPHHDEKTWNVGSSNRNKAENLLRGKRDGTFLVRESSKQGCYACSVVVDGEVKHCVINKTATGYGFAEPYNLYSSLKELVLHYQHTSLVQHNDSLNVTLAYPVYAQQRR
Method in brief: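 ATP consumption read out by KinaseGlo luminescence after a 90 min reaction of 1.7 μg/ml PI3Kα (p110α/p85α) with 2 μM ATP and 50 μM PIP2, buffered at pH 7.5 (Tris, 10 mM MgCl2, 1 mM EGTA, 0.03% Chaps, 1 mM DTT). Threefold dilution series over ≥10 000-fold range yield IC50.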

[1] = target: mTOR (human recombinant aa mTOR 1360-2549) (Homo sapiens (Human), UniProt P42345); experiment: mTOR enzymatic test by TR-FRET (phosphorylation of GFP-4EBP1); assay type: biochemical
mTOR (human recombinant aa mTOR 1360-2549), sequence (P42345 1360-2549): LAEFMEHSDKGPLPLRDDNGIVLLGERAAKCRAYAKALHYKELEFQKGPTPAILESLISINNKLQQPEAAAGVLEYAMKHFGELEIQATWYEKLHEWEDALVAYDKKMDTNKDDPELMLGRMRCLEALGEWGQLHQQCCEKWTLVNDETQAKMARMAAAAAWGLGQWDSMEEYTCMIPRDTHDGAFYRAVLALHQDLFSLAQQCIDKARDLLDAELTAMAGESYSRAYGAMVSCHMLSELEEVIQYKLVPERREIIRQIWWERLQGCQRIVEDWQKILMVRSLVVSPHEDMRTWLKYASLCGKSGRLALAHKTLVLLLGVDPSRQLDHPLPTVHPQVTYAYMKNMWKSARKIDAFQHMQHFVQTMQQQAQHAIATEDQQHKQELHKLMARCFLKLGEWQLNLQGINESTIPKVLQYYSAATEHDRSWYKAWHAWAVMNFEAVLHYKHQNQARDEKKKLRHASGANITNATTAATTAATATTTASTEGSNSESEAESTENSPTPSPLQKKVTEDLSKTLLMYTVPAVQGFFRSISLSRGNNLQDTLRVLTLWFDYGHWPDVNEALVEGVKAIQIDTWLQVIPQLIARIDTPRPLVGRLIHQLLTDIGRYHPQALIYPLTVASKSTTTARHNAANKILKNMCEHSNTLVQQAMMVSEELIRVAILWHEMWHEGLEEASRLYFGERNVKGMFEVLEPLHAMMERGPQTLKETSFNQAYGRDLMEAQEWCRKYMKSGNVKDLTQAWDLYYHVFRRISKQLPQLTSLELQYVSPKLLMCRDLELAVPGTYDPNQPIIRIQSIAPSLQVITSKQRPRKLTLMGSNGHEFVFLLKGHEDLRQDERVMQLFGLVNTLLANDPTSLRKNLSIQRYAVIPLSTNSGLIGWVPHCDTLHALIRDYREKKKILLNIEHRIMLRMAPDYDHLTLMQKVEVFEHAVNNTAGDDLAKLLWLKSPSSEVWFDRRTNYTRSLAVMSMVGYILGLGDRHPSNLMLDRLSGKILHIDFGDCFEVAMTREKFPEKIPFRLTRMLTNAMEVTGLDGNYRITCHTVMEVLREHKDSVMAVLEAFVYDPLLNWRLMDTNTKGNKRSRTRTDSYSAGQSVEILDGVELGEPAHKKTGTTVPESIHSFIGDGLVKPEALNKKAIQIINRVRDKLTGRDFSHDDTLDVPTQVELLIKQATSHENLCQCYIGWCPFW
Method in brief: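 After a 30 min room-temperature kinase reaction, EDTA (10 mM final) and Tb-labelled phospho-Thr46 antibody (2 nM final) were added and incubated 60 min. Energy transfer from Tb to phosphorylated GFP-4EBP1 was read at 340 nm excitation, emissions 490/520 nm. Values derive from the 520/490 fluorescence ratio.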

Structure (SMILES): CCN1CC(C)(C)Oc2nc(N3CC4CCC(C3)O4)nc(-c3ccc(NC(=O)NCC4CCN(C)CC4)c(F)c3)c2C1=O [Example 130, 1-{4-[6-Ethyl-8,8-dimethyl-2-(8-oxa-3-azabicyclo[3.2.1]oct-3-yl)-5-oxo-5,6,7,8-tetrahydro-9-oxa-1,3,6-triazabenzocyclohepten-4-yl]-2-fluorophenyl}-3-(1-methylpiperidin-4-ylmethyl)urea]
- pIC50 (U87MG tumour cells): < 5.00
- IC50 (Akt-pS473 in U87MG cells): > 3000 nM
- PI3Ka IC50 (PI3Kα (p110α/p85α)): >10 µM
- pIC50 [1]: 5.67

Structure (SMILES): CCN1CC(C)(C)Oc2nc(N3CC4CCC(C3)O4)nc(-c3ccc(NC(=O)NCCOC)c(F)c3)c2C1=O [Example 131, 1-{4-[6-Ethyl-8,8-dimethyl-2-(8-oxa-3-azabicyclo[3.2.1]oct-3-yl)-5-oxo-5,6,7,8-tetrahydro-9-oxa-1,3,6-triazabenzocyclohepten-4-yl]-2-fluorophenyl}-3-(2-methoxyethyl)urea]
- pIC50 (U87MG tumour cells): 5.23
- IC50 (Akt-pS473 in U87MG cells): 1990 nM
- PI3Ka IC50 (PI3Kα (p110α/p85α)): >10 µM
- pIC50 [1]: 6.42

Structure (SMILES): CCNC(=O)Nc1ccc(-c2nc(N3CC4CCC(C3)O4)nc3c2C(=O)N(C2CCN(C)CC2)CC(C)(C)O3)cc1 [Example 132, 1-{4-[8,8-Dimethyl-6-(1-methylpiperidin-4-yl)-2-(8-oxa-3-azabicyclo[3.2.1]oct-3-yl)-5-oxo-5,6,7,8-tetrahydro-9-oxa-1,3,6-triazabenzocyclohepten-4-yl]phenyl}-3-ethylurea]
- pIC50 (U87MG tumour cells): < 5.00
- IC50 (Akt-pS473 in U87MG cells): > 3000 nM
- PI3Ka IC50 (PI3Kα (p110α/p85α)): 4.32 µM
- pIC50 [1]: 6.61

Structure (SMILES): CCN1CC(C)(C)Oc2nc(N3CC4CCC(C3)O4)nc(-c3ccc(NC(=O)NC4CC4)c(F)c3)c2C1=O [Example 133, 1-Cyclopropyl-3-{4-[6-ethyl-8,8-dimethyl-2-(8-oxa-3-azabicyclo[3.2.1]oct-3-yl)-5-oxo-5,6,7,8-tetrahydro-9-oxa-1,3,6-triazabenzocyclohepten-4-yl]-2-fluorophenyl}urea]
- pIC50 (U87MG tumour cells): 6.66
- IC50 (Akt-pS473 in U87MG cells): 92 nM
- PI3Ka IC50 (PI3Kα (p110α/p85α)): >10 µM
- pIC50 [1]: 7.48

Structure (SMILES): CCN1CC(C)(C)Oc2nc(N3CC4CCC(C3)O4)nc(-c3ccc(NC(=O)NCC4CCOCC4)c(F)c3)c2C1=O [Example 134, 1-{4-[6-Ethyl-8,8-dimethyl-2-(8-oxa-3-azabicyclo[3.2.1]oct-3-yl)-5-oxo-5,6,7,8-tetrahydro-9-oxa-1,3,6-triazabenzocyclohepten-4-yl]-2-fluorophenyl}-3-(tetrahydropyran-4-ylmethyl)urea]
- pIC50 (U87MG tumour cells): < 5.00
- IC50 (Akt-pS473 in U87MG cells): > 3000 nM
- PI3Ka IC50 (PI3Kα (p110α/p85α)): >10 µM
- pIC50 [1]: 5.50

Structure (SMILES): CCN1CC(C)(C)Oc2nc(N3CC4CCC(C3)O4)nc(-c3ccc(NC(=O)Nc4ccon4)c(F)c3)c2C1=O [Example 135, 1-{4-[6-Ethyl-8,8-dimethyl-2-(8-oxa-3-azabicyclo[3.2.1]oct-3-yl)-5-oxo-5,6,7,8-tetrahydro-9-oxa-1,3,6-triazabenzocyclohepten-4-yl]-2-fluorophenyl}-3-isoxazol-3-ylurea]
- pIC50 (U87MG tumour cells): 6.95
- IC50 (Akt-pS473 in U87MG cells): 26 nM
- PI3Ka IC50 (PI3Kα (p110α/p85α)): 6.525 µM
- pIC50 [1]: 7.96

Structure (SMILES): CCN1CC(C)(C)Oc2nc(N3CC4CCC(C3)O4)nc(-c3ccc(NC(=O)Nc4cnc(OC)nc4)c(F)c3)c2C1=O [Example 136, 1-{4-[6-Ethyl-8,8-dimethyl-2-(8-oxa-3-azabicyclo[3.2.1]oct-3-yl)-5-oxo-5,6,7,8-tetrahydro-9-oxa-1,3,6-triazabenzocyclohepten-4-yl]-2-fluorophenyl}-3-(2-methoxypyrimidin-5-yl)urea]
- pIC50 (U87MG tumour cells): 6.62
- IC50 (Akt-pS473 in U87MG cells): 37 nM
- PI3Ka IC50 (PI3Kα (p110α/p85α)): >10 µM
- pIC50 [1]: 7.47

Structure (SMILES): CCN1CC(C)(C)Oc2nc(N3CC4CCC(C3)O4)nc(-c3ccc(NC(=O)NC4COC4)c(F)c3)c2C1=O [Example 137, 1-{4-[6-Ethyl-8,8-dimethyl-2-(8-oxa-3-azabicyclo[3.2.1]oct-3-yl)-5-oxo-5,6,7,8-tetrahydro-9-oxa-1,3,6-triazabenzocyclohepten-4-yl]-2-fluorophenyl}-3-oxetan-3-ylurea]
- pIC50 (U87MG tumour cells): 5.88
- IC50 (Akt-pS473 in U87MG cells): 241 nM
- PI3Ka IC50 (PI3Kα (p110α/p85α)): >10 µM
- pIC50 [1]: 7.54

Structure (SMILES): CCN1CC(C)(C)Oc2nc(N3CC4CCC(C3)O4)nc(-c3ccc(NC(=O)Nc4ccc(F)c(OC)c4)c(F)c3)c2C1=O [Example 138, 1-{4-[6-Ethyl-8,8-dimethyl-2-(8-oxa-3-azabicyclo[3.2.1]oct-3-yl)-5-oxo-5,6,7,8-tetrahydro-9-oxa-1,3,6-triazabenzocyclohepten-4-yl]-2-fluorophenyl}-3-(4-fluoro-3-methoxyphenyl)urea]
- pIC50 (U87MG tumour cells): 6.48
- IC50 (Akt-pS473 in U87MG cells): 105 nM
- PI3Ka IC50 (PI3Kα (p110α/p85α)): >10 µM
- pIC50 [1]: 6.52

Structure (SMILES): CCN1CC(C)(C)Oc2nc(N3CC4CCC(C3)O4)nc(-c3ccc(NC(=O)Nc4cncc(OC)n4)c(F)c3)c2C1=O [Example 139, 1-{4-[6-Ethyl-8,8-dimethyl-2-(8-oxa-3-azabicyclo[3.2.1]oct-3-yl)-5-oxo-5,6,7,8-tetrahydro-9-oxa-1,3,6-triazabenzocyclohepten-4-yl]-2-fluorophenyl}-3-(6-methoxypyrazin-2-yl)urea]
- pIC50 (U87MG tumour cells): 5.52
- IC50 (Akt-pS473 in U87MG cells): 721 nM
- PI3Ka IC50 (PI3Kα (p110α/p85α)): >10 µM
- pIC50 [1]: 6.60

Structure (SMILES): CCN1CC(C)(C)Oc2nc(N3CC4CCC(C3)O4)nc(-c3ccc(NC(=O)Nc4ccc(OC)nn4)c(F)c3)c2C1=O [Example 140, 1-{4-[6-Ethyl-8,8-dimethyl-2-(8-oxa-3-azabicyclo[3.2.1]oct-3-yl)-5-oxo-5,6,7,8-tetrahydro-9-oxa-1,3,6-triazabenzocyclohepten-4-yl]-2-fluorophenyl}-3-(6-methoxypyridazin-3-yl)urea]
- pIC50 (U87MG tumour cells): 6.33
- IC50 (Akt-pS473 in U87MG cells): 507 nM
- PI3Ka IC50 (PI3Kα (p110α/p85α)): >10 µM
- pIC50 [1]: 7.35

Structure (SMILES): CCN1CC(C)(C)Oc2nc(N3CCOC[C@@H]3C)nc(-c3ccc(NC(=O)Nc4ccc(OC)nc4)c(F)c3)c2C1=O [Example 141, 1-{4-[6-Ethyl-8,8-dimethyl-2-((S)-3-methylmorpholin-4-yl)-5-oxo-5,6,7,8-tetrahydro-9-oxa-1,3,6-triazabenzocyclohepten-4-yl]-2-fluorophenyl}-3-(6-methoxypyridin-3-yl)urea]
- pIC50 (U87MG tumour cells): 7.03
- IC50 (Akt-pS473 in U87MG cells): 19 nM
- PI3Ka IC50 (PI3Kα (p110α/p85α)): 0.598 µM
- pIC50 [1]: 7.47

Structure (SMILES): CCN1CC(C)(C)Oc2nc(N3CC4CCC(C3)O4)nc(-c3ccc(NC(=O)Nc4cnn(C)c4)c(F)c3)c2C1=O [Example 143, 1-{4-[6-Ethyl-8,8-dimethyl-2-(8-oxa-3-azabicyclo[3.2.1]oct-3-yl)-5-oxo-5,6,7,8-tetrahydro-9-oxa-1,3,6-triazabenzocyclohepten-4-yl]-2-fluorophenyl}-3-(1-methyl-1H-pyrazol-4-yl)urea]
- pIC50 (U87MG tumour cells): 6.53
- IC50 (Akt-pS473 in U87MG cells): 62 nM
- PI3Ka IC50 (PI3Kα (p110α/p85α)): 3.18 µM
- pIC50 [1]: 7.72

Structure (SMILES): CCN1CC(C)(C)Oc2nc(N3CC4CCC(C3)O4)nc(-c3ccc(NC(=O)Nc4ccnc(OC)n4)c(F)c3)c2C1=O [Example 144, 1-{4-[6-Ethyl-8,8-dimethyl-2-(8-oxa-3-azabicyclo[3.2.1]oct-3-yl)-5-oxo-5,6,7,8-tetrahydro-9-oxa-1,3,6-triazabenzocyclohepten-4-yl]-2-fluorophenyl}-3-(2-methoxypyrimidin-4-yl)urea]
- pIC50 (U87MG tumour cells): 5.59
- IC50 (Akt-pS473 in U87MG cells): 142 nM
- PI3Ka IC50 (PI3Kα (p110α/p85α)): >10 µM
- pIC50 [1]: 6.98

Structure (SMILES): CCN1CC(C)(C)Oc2nc(N3CC4CCC(C3)O4)nc(-c3ccc(NC(=O)Nc4ccc(OC)nn4)cc3)c2C1=O [Example 146, 1-{4-[6-Ethyl-8,8-dimethyl-2-(8-oxa-3-azabicyclo[3.2.1]oct-3-yl)-5-oxo-5,6,7,8-tetrahydro-9-oxa-1,3,6-triazabenzocyclohepten-4-yl]phenyl}-3-(6-methoxypyridazin-3-yl)urea]
- pIC50 (U87MG tumour cells): 6.36
- IC50 (Akt-pS473 in U87MG cells): 82 nM
- PI3Ka IC50 (PI3Kα (p110α/p85α)): >10 µM
- pIC50 [1]: 7.46

Structure (SMILES): CCN1CC(C)(C)Oc2nc(N3CC4CCC(C3)O4)nc(-c3ccc(NC(=O)Nc4cccc(C(F)(F)F)c4)cc3)c2C1=O [Example 147, 1-{4-[6-Ethyl-8,8-dimethyl-2-(8-oxa-3-azabicyclo[3.2.1]oct-3-yl)-5-oxo-5,6,7,8-tetrahydro-9-oxa-1,3,6-triazabenzocyclohepten-4-yl]phenyl}-3-(3-trifluoromethylphenyl)urea]
- pIC50 (U87MG tumour cells): 6.53
- IC50 (Akt-pS473 in U87MG cells): 28 nM
- PI3Ka IC50 (PI3Kα (p110α/p85α)): >10 µM
- pIC50 [1]: 6.74

Structure (SMILES): COc1ccc(NC(=O)Nc2ccc(-c3nc(N4CC5CCC(C4)O5)nc4c3C(=O)N(C3CCOCC3)CC(C)(C)O4)cc2)cn1 [Example 148, 1-{4-[8,8-Dimethyl-2-(8-oxa-3-azabicyclo[3.2.1]oct-3-yl)-5-oxo-6-(tetrahydropyran-4-yl)-5,6,7,8-tetrahydro-9-oxa-1,3,6-triazabenzocyclohepten-4-yl]phenyl}-3-(6-methoxypyridin-3-yl)urea]
- pIC50 (U87MG tumour cells): 6.31
- IC50 (Akt-pS473 in U87MG cells): 21 nM
- PI3Ka IC50 (PI3Kα (p110α/p85α)): >10 µM
- pIC50 [1]: 7.17

Structure (SMILES): CCN1CC(C)(C)Oc2nc(N3CCOC[C@@H]3C)nc(-c3ccc(NC(=O)NCC(F)(F)F)c(F)c3)c2C1=O [Example 149, 1-{4-[6-Ethyl-8,8-dimethyl-2-((S)-3-methylmorpholin-4-yl)-5-oxo-5,6,7,8-tetrahydro-9-oxa-1,3,6-triazabenzocyclohepten-4-yl]-2-fluorophenyl}-3-(2,2,2-trifluoroethyl)urea]
- pIC50 (U87MG tumour cells): 6.07
- IC50 (Akt-pS473 in U87MG cells): 154 nM
- PI3Ka IC50 (PI3Kα (p110α/p85α)): >10 µM
- pIC50 [1]: 6.95
